Data as given in ChEMBL document CHEMBL1201862, “PubChem BioAssay data set” (2004).
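A five-concentration, 48-hour dose response in 96-well plates underlies each endpoint, interpolated linearly between surrounding concentrations. Abbreviation: GI50, concentration required for 50% inhibition of growth.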 The source made the active and inactive calls. No stated cut-off is given here; in the data, active = GI50 up to about 1.1 µM and inactive = higher.

Legend:
Assay in all cases: DTP human tumour cell line panel, 48 h
786-0 = test system: 786-0
A498 = test system: A498
CAKI-1 = test system: CAKI-1
CCRF-CEM = test system: CCRF-CEM
COLO 205 = test system: COLO 205
EKVX = test system: EKVX
HCT-15 = test system: HCT-15
HOP-62 = test system: HOP-62
IGROV-1 = test system: IGROV-1
MOLT-4 = test system: MOLT-4
NCI-H226 = test system: NCI-H226
NCI-H460 = test system: NCI-H460
OVCAR-5 = test system: OVCAR-5
OVCAR-8 = test system: OVCAR-8
RXF 393 = test system: RXF 393
SN12C = test system: SN12C
SNB-19 = test system: SNB-19
SR = test system: SR
TK-10 = test system: TK-10
HOP-92 = test system: HOP-92

Structure (SMILES) | GI50 (786-0) | GI50 (A498) | GI50 (CAKI-1) | GI50 (CCRF-CEM) | GI50 (COLO 205) | GI50 (EKVX) | GI50 (HCT-15) [µM] | GI50 (HOP-62) | GI50 (IGROV-1) | GI50 (MOLT-4) | GI50 (NCI-H226) | GI50 (NCI-H460) | GI50 (OVCAR-5) | GI50 (OVCAR-8) | GI50 (RXF 393) | GI50 (SN12C) | GI50 (SNB-19) | GI50 (SR) | GI50 (TK-10) | GI50 (HOP-92)
O=[N+]([O-])c1nccn1CC(O)CN1CC1 (stereo not given) | 65.6 µM (inactive) | > 100 µM (inactive) | 39 µM (inactive) | 24.7 µM (inactive) | 44.6 µM (inactive) | > 100 µM (inactive) | 58.6 | 74.3 µM (inactive) | 71.3 µM (inactive) | 32 µM (inactive) | 94 µM (inactive) | 27.6 µM (inactive) | > 100 µM (inactive) | 37.8 µM (inactive) | 25.5 µM (inactive) | 61.8 µM (inactive) | > 100 µM (inactive) | 27.2 µM (inactive) | > 100 µM (inactive) | 
Cc1ccc(NC(=O)CCc2nnc(S)[nH]2)cc1 | > 100 µM (inactive) | > 100 µM (inactive) | > 100 µM (inactive) | > 100 µM (inactive) | > 100 µM (inactive) | > 100 µM (inactive) | 76 | > 100 µM (inactive) | > 100 µM (inactive) | > 100 µM (inactive) | > 100 µM (inactive) | > 100 µM (inactive) | > 100 µM (inactive) | > 100 µM (inactive) |  | > 100 µM (inactive) | > 100 µM (inactive) | > 100 µM (inactive) | > 100 µM (inactive) | > 100 µM (inactive)
CS/C(=N\S(=O)(=O)c1ccc(Cl)cc1)NCCCCN/C(=N/S(=O)(=O)c1ccc(Cl)cc1)SC | 44.5 µM (inactive) | 32.6 µM (inactive) | > 100 µM (inactive) | > 100 µM (inactive) | > 100 µM (inactive) | > 100 µM (inactive) | > 100 | > 100 µM (inactive) | 83 µM (inactive) | > 10 µM (inactive) |  | > 100 µM (inactive) | > 100 µM (inactive) | 75.3 µM (inactive) |  | > 100 µM (inactive) | > 100 µM (inactive) | > 100 µM (inactive) | > 100 µM (inactive) | 60.1 µM (inactive)
CC1=NN2CCC(=O)N=C2S1 | > 100 µM (inactive) |  | > 100 µM (inactive) | > 100 µM (inactive) | > 100 µM (inactive) | > 100 µM (inactive) | > 100 | > 100 µM (inactive) | > 100 µM (inactive) | > 100 µM (inactive) | > 100 µM (inactive) | > 100 µM (inactive) | > 100 µM (inactive) | > 100 µM (inactive) | > 100 µM (inactive) | > 100 µM (inactive) | > 100 µM (inactive) | > 100 µM (inactive) | > 100 µM (inactive) | > 100 µM (inactive)
Nc1nc(N)c2nc(CNc3ccc(C(=O)NC(CCC(=O)O)C(=O)O)cc3F)cnc2n1 (stereo not given) | < 0.01 µM (active) | < 0.01 µM (active) | < 0.01 µM (active) | < 0.01 µM (active) | > 48.2 µM (inactive) | < 0.01 µM (active) | < 0.01 | < 0.01 µM (active) | < 0.01 µM (active) | < 0.01 µM (active) | > 100 µM (inactive) | < 0.01 µM (active) | > 100 µM (inactive) | < 0.01 µM (active) | > 100 µM (inactive) | < 0.01 µM (active) | < 0.01 µM (active) | < 0.01 µM (active) | > 100 µM (inactive) | 
COc1ccc2c(c1)C1Oc3ccccc3CC1(O)CO2 (stereo not given) | > 100 µM (inactive) | > 100 µM (inactive) | > 100 µM (inactive) | > 100 µM (inactive) | > 100 µM (inactive) | > 100 µM (inactive) | > 100 | > 100 µM (inactive) | > 100 µM (inactive) | > 100 µM (inactive) | > 100 µM (inactive) |  | > 100 µM (inactive) | > 100 µM (inactive) |  | > 100 µM (inactive) |  | > 100 µM (inactive) | > 100 µM (inactive) | > 100 µM (inactive)
COc1ccc(-c2nc(-c3cnccn3)n(C3OC(CO)C(O)C3O)n2)cc1 (stereo not given) | > 10 µM (inactive) |  |  | > 10 µM (inactive) |  | > 10 µM (inactive) | > 10 |  |  | > 10 µM (inactive) | > 10 µM (inactive) | > 10 µM (inactive) | > 10 µM (inactive) | > 10 µM (inactive) |  | > 10 µM (inactive) | > 10 µM (inactive) | > 10 µM (inactive) | > 10 µM (inactive) | > 10 µM (inactive)
Cc1nc(N)nc(N)c1CCCc1ccccc1 | 3.66 µM (inactive) |  | 9.25 µM (inactive) | 6.25 µM (inactive) | 22.8 µM (inactive) | 15.2 µM (inactive) | 2.87 | 12.1 µM (inactive) | 6.11 µM (inactive) | 4.07 µM (inactive) | 97.7 µM (inactive) | 3.47 µM (inactive) | 15.9 µM (inactive) | 7.59 µM (inactive) |  | 3.65 µM (inactive) | 11.2 µM (inactive) | 4.07 µM (inactive) | > 100 µM (inactive) | 11.6 µM (inactive)
CC(C)C1CC(O)O[C@@H]([C@@H](C)[C@H]2CC(=O)[C@@H]3[C@@H]4[C@@H](O)[C@H](O)[C@H]5[C@@H](O)[C@H](O)CC[C@]5(C)[C@H]4CC[C@]23C)C1 (stereo not given in full) | 48 µM (inactive) |  |  | > 100 µM (inactive) | > 100 µM (inactive) | 66.1 µM (inactive) | > 100 | 21.2 µM (inactive) | 24.5 µM (inactive) | > 100 µM (inactive) | > 100 µM (inactive) | > 100 µM (inactive) |  | 54.1 µM (inactive) | 13.3 µM (inactive) | 28.7 µM (inactive) | 37.8 µM (inactive) | > 100 µM (inactive) | 38.3 µM (inactive) | 22.2 µM (inactive)
COC(=O)C1C2C=CC(C2)N1[C@@H](C)c1ccccc1 (stereo not given in full) | > 100 µM (inactive) | > 100 µM (inactive) | > 100 µM (inactive) | > 100 µM (inactive) | > 100 µM (inactive) | > 100 µM (inactive) | > 100 | > 100 µM (inactive) | > 100 µM (inactive) |  |  | > 100 µM (inactive) | > 100 µM (inactive) | > 100 µM (inactive) |  | > 100 µM (inactive) | > 100 µM (inactive) | > 100 µM (inactive) | > 100 µM (inactive) | > 100 µM (inactive)
Cc1nnc(N)nc1/C=C\c1ccc(N(C)C)cc1 | > 26.7 µM (inactive) | 16.6 µM (inactive) |  | 10.3 µM (inactive) | > 29.7 µM (inactive) | 29.6 µM (inactive) | 2.99 | 38.5 µM (inactive) | 37.5 µM (inactive) | 17.6 µM (inactive) | 16.1 µM (inactive) | 9.66 µM (inactive) | > 86.3 µM (inactive) | 22.9 µM (inactive) | > 40.1 µM (inactive) | > 100 µM (inactive) | 15.2 µM (inactive) | 6.24 µM (inactive) | > 37.6 µM (inactive) | 
O=C(O)C(Cc1ccccc1)N1C(=O)N/C(=C\c2ccc(F)cc2)C1=O (stereo not given) | > 100 µM (inactive) |  | > 100 µM (inactive) | > 100 µM (inactive) | > 100 µM (inactive) | > 100 µM (inactive) | > 100 | > 100 µM (inactive) | > 100 µM (inactive) | > 100 µM (inactive) | > 100 µM (inactive) | > 100 µM (inactive) | > 100 µM (inactive) | > 100 µM (inactive) | > 100 µM (inactive) | > 100 µM (inactive) |  | > 100 µM (inactive) | > 100 µM (inactive) | > 100 µM (inactive)
CN(C)CC(C)(C)C(/C=C/c1ccccc1)=N\Nc1ccccc1 | 0.457 µM (active) | 21.8 µM (inactive) |  | 0.367 µM (active) | 3.19 µM (inactive) | 0.378 µM (active) | 0.309 | 2.77 µM (inactive) | 0.723 µM (active) | 0.451 µM (active) |  | 0.659 µM (active) | 0.31 µM (active) | 12.8 µM (inactive) | 18 µM (inactive) | 1.71 µM (inactive) | 3.23 µM (inactive) | 0.798 µM (active) | 0.162 µM (active) | 
O=c1c2ccccc2c2c1c1c3ccccc3c(=O)c1c1c3ccccc3c(=O)c21 | > 100 µM (inactive) | > 100 µM (inactive) | > 100 µM (inactive) | > 100 µM (inactive) | > 100 µM (inactive) | > 100 µM (inactive) | > 100 | > 100 µM (inactive) | > 100 µM (inactive) | > 100 µM (inactive) | > 100 µM (inactive) | > 100 µM (inactive) | > 100 µM (inactive) | > 100 µM (inactive) |  | > 100 µM (inactive) | > 100 µM (inactive) | > 100 µM (inactive) | > 100 µM (inactive) | 
O=C(CC1(O)C(=O)Nc2ccc([N+](=O)[O-])cc21)c1ccc2ccccc2c1 (stereo not given) | > 100 µM (inactive) | > 100 µM (inactive) |  | > 100 µM (inactive) | > 100 µM (inactive) | > 100 µM (inactive) | > 100 | > 100 µM (inactive) | > 100 µM (inactive) | > 100 µM (inactive) | > 100 µM (inactive) | > 100 µM (inactive) | > 100 µM (inactive) | > 100 µM (inactive) | > 100 µM (inactive) | > 100 µM (inactive) | > 100 µM (inactive) | > 100 µM (inactive) | > 100 µM (inactive) | 
CCOC(=O)N1CC2(C)C=CC1C(C(=O)OC)C2 (stereo not given) | > 100 µM (inactive) | > 100 µM (inactive) | > 100 µM (inactive) | > 100 µM (inactive) | > 100 µM (inactive) | > 100 µM (inactive) | > 100 | > 100 µM (inactive) | > 100 µM (inactive) | > 100 µM (inactive) | 69.8 µM (inactive) | > 100 µM (inactive) | > 100 µM (inactive) | > 100 µM (inactive) | > 100 µM (inactive) | > 100 µM (inactive) | > 100 µM (inactive) | > 100 µM (inactive) | > 100 µM (inactive) | 
